Results on 20 compounds are retold here after patent publication US20180244611A1, “Modulators of the Cystic Fibrosis Transmembrane Conductance Regulator Protein and Methods of Use” (AbbVie S.à.r.l., priority 2017, published 2018).

Assay [1] deals with T1, F508delCFTR (Homo sapiens, UniProt P13569, DEL508-508).
T1 construct: expressed in transfected cells; host or cells: CFBE41o- human lung-derived epithelial cells (CFBE41o-F508delCFTR-HRP), doxycycline-inducible
Briefly: Cell Surface Expression-Horse Radish Peroxidase (CSE-HRP) assay, test compound without co-corrector.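 As to Maximum % activity (without co-corrector): percent of on-plate 2 µM positive control corrector response over DMSO.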 The format is cell-based. To be noted: for pEC50: test compound without co-corrector. Here is the method: (§1) Cell Surface Expression-Horse Radish Peroxidase (CSE-HRP) Assay
(§2) A cellular assay for measuring the F508delCFTR cell surface expression after correction with test compounds either without or with a co-corrector (2 μM of 3-[(2R,4R)-4-({[1-(2,2-difluoro-1,3-benzodioxol-5-yl)cyclopropyl]carbonyl}amino)-7-methoxy-3,4-dihydro-2H-chromen-2-yl]benzoic acid), was developed in human lung derived epithelial cell line (CFBE41o-) (Veit G et al, (2012) Mol Biol Cell. 23(21): 4188-4202). The development was achieved by expressing the F508delCFTR mutation along with a horseradish peroxidase (HRP) in the fourth exofacial loop, and then measuring the HRP activity using luminescence readout from these cells, CFBE41o-F508delCFTR-HRP, that were incubated overnight with the test corrector compounds, either without or with the co-corrector. For this primary assay, the CFBE41o-F508delCFTR-HRP cells were plated in 384-well plates (Greiner Bio-one; Cat 781080) at 4,000 cells/well along with 0.5 μg/mL doxycycline to induce the F508delCFTR-HRP expression and further incubated at 37° C., 5% CO2 for 72 hours. The test compounds were then added either without or with a co-corrector at the required concentrations and further incubated for 18-24 hours at 33° C. The highest concentration tested was 20 μM with an 8-point concentration response curve using a 3-fold dilution in both the test compound without or with the co-corrector. Three replicate plates were run to determine one EC50. All plates contained negative controls (dimethyl sulfoxide, DMSO) and positive control (2 μM of 3-[(2R,4R)-4-({[1-(2,2-difluoro-1,3-benzodioxol-5-yl)cyclopropyl]carbonyl}amino)-7-methoxy-3,4-dihydro-2H-chromen-2-yl]benzoic acid) as well as on-plate concentration response of the positive control. Post incubation, the plates were washed 5× times with Dulbecco's phosphate buffered saline (DPBS), followed by the addition of the HRP substrate, luminol (50 μL), and measuring the HRP activity using luminescence readout on EnVision® Multilabel Plate Reader (Perkin Elmer; product number 2104-0010). The raw counts from the experiment were analyzed using Accelrys® Assay Explorer v3.3.
(§3) Z′ greater than 0.5 was used as passing quality control criteria for the plates.
(§4) 1−[3*SDPositive Control+3*SDNegative Control/Absolute (MeanPositive Control−MeanNegative Control)]
(§5) wherein “SD” is standard deviation.
(§6) The % activity measured at each of the 8 test concentrations of the test compound added either without or with a co-corrector (2 μM of 3-[(2R,4R)-4-({[1-(2,2-difluoro-1,3-benzodioxol-5-yl)cyclopropyl]carbonyl}amino)-7-methoxy-3,4-dihydro-2H-chromen-2-yl]benzoic acid) was normalized to the on-plate positive control using the following formulae:
% activity (Test compound without co-corrector)=[(test compound without co-corrector response−DMSO response)/(positive control response−DMSO response)]*100%
(§7) The maximum % activity achieved for the test compound either without or with a co-corrector at any tested concentration is presented in Table 1 along with the respective EC50's calculated using the following general sigmoidal curve with variable Hill slope equation (described as Model 42 in the Accelrys® Assay Explorer v3.3 software):
(§8) General sigmoidal curve with concentration, response, top, bottom, EC50 and Hill slope. This model describes a sigmoidal curve with an adjustable baseline, a. The equation can be used to fit curves where response is either increasing or decreasing with respect to the independent variable, “x”.
“x” is a concentration of drug under test. “y” is the response. “a” is the maximum response, and “d” is the minimum response “c” is the inflection point (EC50) for the curve. That is, “y” is halfway between the lower and upper asymptotes when x=c. “b” is the slope-factor or Hill coefficient. The sign of b is positive when the response increases with increasing dose and is negative when the response decreases with increasing dose (inhibition). The data is presented with the qualifiers shown below: […]

The target of assay [2] is T1, F508delCFTR. Briefly: Cell Surface Expression-Horse Radish Peroxidase (CSE-HRP) assay, test compound with co-corrector.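 As to Maximum % activity (with co-corrector): percent of 2 µM positive control corrector over DMSO; co-corrector is that same compound.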 The format is cell-based. The conditions noted are these: with 2 μM co-corrector; for Maximum % activity (with co-corrector): maximum at any tested concentration, normalized to positive control. The procedure:
as §1, §2, §3, §4, §5, §6
activity (Test compound with co-corrector)=[(test compound with co-corrector response−DMSO response)/(positive control response−DMSO response)]*100
as §7, §8
“x” is a concentration of drug under test. “y” is the response. “a” is the maximum response, and “d” is the minimum response “c” is the inflection point (EC50) for the curve. That is, “y” is halfway between the lower and upper asymptotes when x=c. “b” is the slope-factor or Hill coefficient. The sign of b is positive when the response increases with increasing dose and is negative when the response decreases with increasing dose (inhibition).

The mark [3] stands for this setting: maximum at any tested concentration, normalized to positive control, without co-corrector.

pEC50: −log10 of the molar value. Some results are limits rather than exact numbers.

T1 sequence (P13569 with tags, fused parts or gaps DEL508-508): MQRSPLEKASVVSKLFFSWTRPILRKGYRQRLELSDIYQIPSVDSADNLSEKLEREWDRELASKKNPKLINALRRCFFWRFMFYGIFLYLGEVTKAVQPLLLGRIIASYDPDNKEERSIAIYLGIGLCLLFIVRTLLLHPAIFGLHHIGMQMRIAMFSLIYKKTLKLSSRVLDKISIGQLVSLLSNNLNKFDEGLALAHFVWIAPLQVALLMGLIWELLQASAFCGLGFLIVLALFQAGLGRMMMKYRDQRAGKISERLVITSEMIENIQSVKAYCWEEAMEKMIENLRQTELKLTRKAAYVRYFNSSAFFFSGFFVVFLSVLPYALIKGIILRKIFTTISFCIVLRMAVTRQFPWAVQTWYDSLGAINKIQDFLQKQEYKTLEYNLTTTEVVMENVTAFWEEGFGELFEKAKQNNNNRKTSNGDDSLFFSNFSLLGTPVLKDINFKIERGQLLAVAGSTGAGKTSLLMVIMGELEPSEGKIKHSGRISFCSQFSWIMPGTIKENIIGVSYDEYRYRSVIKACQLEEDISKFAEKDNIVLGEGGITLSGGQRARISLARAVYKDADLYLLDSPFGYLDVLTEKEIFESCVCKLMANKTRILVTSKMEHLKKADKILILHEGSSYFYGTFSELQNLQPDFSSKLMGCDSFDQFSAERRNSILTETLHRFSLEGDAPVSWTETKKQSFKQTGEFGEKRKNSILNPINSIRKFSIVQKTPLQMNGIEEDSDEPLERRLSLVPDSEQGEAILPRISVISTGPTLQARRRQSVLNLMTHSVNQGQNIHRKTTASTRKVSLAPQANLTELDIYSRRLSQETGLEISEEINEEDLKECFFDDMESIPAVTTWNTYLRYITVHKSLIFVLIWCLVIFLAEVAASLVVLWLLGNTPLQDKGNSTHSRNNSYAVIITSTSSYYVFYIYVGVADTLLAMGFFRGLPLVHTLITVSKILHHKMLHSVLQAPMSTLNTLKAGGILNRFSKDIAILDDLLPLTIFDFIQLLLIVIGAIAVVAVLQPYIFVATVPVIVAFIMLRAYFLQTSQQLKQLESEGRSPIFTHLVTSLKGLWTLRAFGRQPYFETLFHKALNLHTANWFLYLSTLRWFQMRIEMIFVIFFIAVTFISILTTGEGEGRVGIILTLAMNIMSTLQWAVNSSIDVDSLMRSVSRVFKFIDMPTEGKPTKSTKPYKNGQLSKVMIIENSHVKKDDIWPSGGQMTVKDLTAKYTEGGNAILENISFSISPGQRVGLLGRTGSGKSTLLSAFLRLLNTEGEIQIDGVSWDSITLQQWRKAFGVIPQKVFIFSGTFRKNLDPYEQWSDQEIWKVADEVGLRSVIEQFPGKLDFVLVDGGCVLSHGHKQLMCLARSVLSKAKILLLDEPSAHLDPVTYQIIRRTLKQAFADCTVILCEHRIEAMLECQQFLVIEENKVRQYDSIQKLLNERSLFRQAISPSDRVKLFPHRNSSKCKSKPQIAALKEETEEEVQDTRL

The term pEC50 denotes the EC50 on a negative log10 scale, so that one unit is a factor of ten. A higher pEC50 goes with a small EC50. Take “2-cyclobutyl-5-methoxy-N-(1-methyl-1H-benzimidazole-7-sulfonyl)bicyclo[4.2.0]octa-1,3,5-triene-7-carboxamide [Example I-134]”: the “Maximum % activity (without co-corrector)” value in assay [1] (setting [3]) is on record as “+++ (≥150)”. Further, the pEC50 in assay [1] and in assay [2] was above 5.52 each time. For the same compound, the “Maximum % activity (with co-corrector)” value in assay [2] is listed as “+++ (≥350)”.
Broadly, the Emax is the maximal effect, on the per cent scale that the assay sets. With `COc1ccc(Br)c2c1[C@@H](C(=O)NS(=O)(=O)c1cccc3ncccc13)CCC2` (single isomer, unassigned) [Example I-62], the Emax in assay [1] (setting [3]) was at least 150%. Also, the pEC50 in assay [1] is 5.00 to 5.52; in assay [2] it was above 5.52. Besides, the “Maximum % activity (with co-corrector)” value in assay [2] is “+++ (≥350)”.
Turning to `COc1ccc(Br)c2c1[C@H](C(=O)NS(=O)(=O)c1cccc3ncccc13)CCC2` (single isomer, unassigned) [Example I-63], the Emax in assay [1] (setting [3]) was at least 150%. Also, the pEC50 in assay [1] was above 5.52. Besides, in assay [2], the “Maximum % activity (with co-corrector)” value is reported as “+++ (≥350)” and the pEC50 was above 5.52.
Take `COc1ccc(Cl)c2c1CC[C@H]2C(=O)NS(=O)(=O)c1cccc2ccccc12` (single isomer, unassigned) [Example I-86]: the Emax in assay [1] (setting [3]) is at least 150%. In addition, the pEC50 in assay [1] is 5.00 to 5.52; in assay [2], above 5.52. Besides, the “Maximum % activity (with co-corrector)” value in assay [2] is given as “+++ (≥350)”.
The matching figures for `COc1ccc(Cl)c2c1CC[C@@H]2C(=O)NS(=O)(=O)c1cccc2ccccc12` (single isomer, unassigned) [Example I-87]: 50 to 150%, 5.00 to 5.52, 5.00 to 5.52 and “+++ (≥350)”.
On the same counts, the results for `COc1ccc(C2CCC2)c2c1[C@@H](C(=O)NS(=O)(=O)c1cccc3ccccc13)C2` (single isomer, unassigned) [Example I-106] are at least 150%, 5.00 to 5.52, above 5.52 and “+++ (≥350)”.
For the compound `COc1ccc(C2CCC2)c2c1[C@H](C(=O)NS(=O)(=O)c1cccc3ccccc13)C2` (single isomer, unassigned) [Example I-107], in assay [1] (setting [3]), the Emax is at least 150%. For the same compound, the pEC50 in assay [1] was above 5.52. In addition, in assay [2], the “Maximum % activity (with co-corrector)” value was “+++ (≥350)” and the pEC50 is above 5.52.
Take `COc1ccc(C2CCC2)c2c1[C@@H](C(=O)NS(=O)(=O)c1cccc3cnn(C)c13)CC2` (single isomer, unassigned) [Example I-141]: the Emax in assay [1] (setting [3]) was at least 150%. In assay [1], this compound had a pEC50 of 5.00 to 5.52. Moreover, in assay [2], the “Maximum % activity (with co-corrector)” value was “+++ (≥350)” and the pEC50 is above 5.52.
Consider `COc1ccc(C2CCC2)c2c1[C@H](C(=O)NS(=O)(=O)c1cccc3cnn(C)c13)CC2` (single isomer, unassigned) [Example I-142], for which the Emax in assay [1] (setting [3]) was at least 150%. In assay [1], this compound gave a pEC50 above 5.52. In assay [2], the “Maximum % activity (with co-corrector)” value is listed as “+++ (≥350)” and the pEC50 is above 5.52.
In assay [1] (setting [3]), `COc1ccc(C2CCC2)c2c1[C@@H](C(=O)NS(=O)(=O)c1cccc3cnn(C)c13)C2` (single isomer, unassigned) [Example I-143] showed an Emax of 50 to 150%. Also, in assay [1], the pEC50 is 5.00 to 5.52. In addition, in assay [2], the “Maximum % activity (with co-corrector)” value is listed as “+++ (≥350)” and the pEC50 was above 5.52.
The matching figures for `COc1ccc(C2CCC2)c2c1[C@@H](C(=O)NS(=O)(=O)c1cccc3c1CCCN3)C2` (single isomer, unassigned) [Example I-145]: at least 150%, 5.00 to 5.52, “+++ (≥350)” and 5.00 to 5.52.
As to `COc1ccc(C2CCC2)c2c1[C@@H](C(=O)NS(=O)(=O)c1cccc3ncccc13)C2` (single isomer, unassigned) [Example I-147], in assay [1] (setting [3]), the Emax was at least 150%. For the same compound, the pEC50 in assay [1] is 5.00 to 5.52; in assay [2] it was above 5.52. Moreover, the “Maximum % activity (with co-corrector)” value in assay [2] is recorded as “+++ (≥350)”.
The matching figures for `COc1ccc(C2CCC2)c2c1[C@H](C(=O)NS(=O)(=O)c1cccc3ncccc13)C2` (single isomer, unassigned) [Example I-148]: at least 150%, above 5.52, above 5.52 and “+++ (≥350)”.
With `Cc1ccccc1S(=O)(=O)NC(=O)[C@H]1CCc2c(Cl)cccc21` (single isomer, unassigned) [II-29], the Emax in assay [1] (setting [3]) lay within 50 to 150%. The pEC50 in assay [1] is 5.00 to 5.52. For the same compound, in assay [2], the “Maximum % activity (with co-corrector)” value was “++ (≥150 and <350)”; the pEC50 is above 5.52.
The compound `COc1cccc2c1CCC2C(=O)NS(=O)(=O)c1cccc2ccccc12` (stereo not drawn) [Example I-1, 4-methoxy-N-(naphthalene-1-sulfonyl)-2,3-dihydro-1H-indene-1-carboxamide] returned a maximum response (Emax) in assay [1] (setting [3]) of at least 150%. In assay [1], this compound had a pEC50 of 5.00 to 5.52. In assay [2], the “Maximum % activity (with co-corrector)” value is given as “+++ (≥350)” and the pEC50 is 5.00 to 5.52.
`O=C(NS(=O)(=O)c1cccc2ccccc12)C1CCCc2cccc(Cl)c21` (stereo not drawn) [Example I-2, 8-chloro-N-(naphthalene-1-sulfonyl)-1,2,3,4-tetrahydronaphthalene-1-carboxamide]: the maximal response (Emax) in assay [1] (setting [3]) is at least 150%. Further, in assay [1], the pEC50 is 5.00 to 5.52. Moreover, in assay [2], the “Maximum % activity (with co-corrector)” value is “+++ (≥350)” and the pEC50 is above 5.52.
The matching figures for `COc1cccc2c1CCC[C@H]2C(=O)NS(=O)(=O)c1cccc2ccccc12` [Example I-3, (1R)-5-methoxy-N-(naphthalene-1-sulfonyl)-1,2,3,4-tetrahydronaphthalene-1-carboxamide]: at least 150%, 5.00 to 5.52, “+++ (≥350)” and 5.00 to 5.52.
The matching figures for `COc1cccc2c1CCCC2C(=O)NS(=O)(=O)c1cccc2ccccc12` (stereo not drawn) [Example I-4, 5-methoxy-N-(naphthalene-1-sulfonyl)-1,2,3,4-tetrahydronaphthalene-1-carboxamide]: at least 150%, 5.00 to 5.52, “+++ (≥350)” and 5.00 to 5.52.
The matching figures for `O=C(NS(=O)(=O)c1cccc2ccccc12)C1(Cc2ccccc2)CCc2c(Cl)cccc21` (stereo not drawn) [Example I-5, 1-benzyl-4-chloro-N-(naphthalene-1-sulfonyl)-2,3-dihydro-1H-indene-1-carboxamide]: at least 150%, above 5.52, “+++ (≥350)” and above 5.52.
For `CCCCC1(C(=O)NS(=O)(=O)c2cccc3ccccc23)CCc2c(Cl)cccc21` (stereo not drawn) [Example I-30, 1-butyl-4-chloro-N-(naphthalene-1-sulfonyl)-2,3-dihydro-1H-indene-1-carboxamide], in assay [2], the “Maximum % activity (with co-corrector)” value is reported as “+++ (≥350)” and the pEC50 was above 5.52.
